Test [1] deals with T1, Mhp1 (Microbacterium maritypicum, UniProt D6R8X8).
T1 construct: gene hyuP; His-tagged (Ni-NTA, HisProbe blot), expressed in E. coli inner membranes, solubilized in DDM or trapped in A8-35
T1 sequence (D6R8X8 1-489): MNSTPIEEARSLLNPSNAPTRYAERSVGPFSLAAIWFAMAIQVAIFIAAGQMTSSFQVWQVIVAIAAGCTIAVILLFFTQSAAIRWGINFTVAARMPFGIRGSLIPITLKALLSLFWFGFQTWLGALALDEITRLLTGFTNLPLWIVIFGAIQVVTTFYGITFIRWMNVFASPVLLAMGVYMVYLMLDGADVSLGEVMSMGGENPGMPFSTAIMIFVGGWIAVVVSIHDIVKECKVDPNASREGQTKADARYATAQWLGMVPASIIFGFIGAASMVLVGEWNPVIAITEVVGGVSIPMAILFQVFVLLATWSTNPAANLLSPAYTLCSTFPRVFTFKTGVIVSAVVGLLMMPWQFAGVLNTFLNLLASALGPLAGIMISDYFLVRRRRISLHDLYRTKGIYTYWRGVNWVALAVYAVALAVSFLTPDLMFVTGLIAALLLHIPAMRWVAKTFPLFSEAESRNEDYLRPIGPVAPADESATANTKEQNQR
The test is described as follows: tryptophan fluorescence quenching titration. Format: binding. As to the method:
tryptophan fluorescence quenching titration on Mhp1 | The activity of Mhp1 was evaluated by monitoring binding to L-benzylhydantoin, a known ligand

Test [2] deals with T2, GalP (Escherichia coli, UniProt P0AEP1).
T2 construct: His-tagged (Ni-NTA, HisProbe blot), expressed in E. coli inner membranes, solubilized in DDM or trapped in A8-35
T2 sequence (P0AEP1 1-464): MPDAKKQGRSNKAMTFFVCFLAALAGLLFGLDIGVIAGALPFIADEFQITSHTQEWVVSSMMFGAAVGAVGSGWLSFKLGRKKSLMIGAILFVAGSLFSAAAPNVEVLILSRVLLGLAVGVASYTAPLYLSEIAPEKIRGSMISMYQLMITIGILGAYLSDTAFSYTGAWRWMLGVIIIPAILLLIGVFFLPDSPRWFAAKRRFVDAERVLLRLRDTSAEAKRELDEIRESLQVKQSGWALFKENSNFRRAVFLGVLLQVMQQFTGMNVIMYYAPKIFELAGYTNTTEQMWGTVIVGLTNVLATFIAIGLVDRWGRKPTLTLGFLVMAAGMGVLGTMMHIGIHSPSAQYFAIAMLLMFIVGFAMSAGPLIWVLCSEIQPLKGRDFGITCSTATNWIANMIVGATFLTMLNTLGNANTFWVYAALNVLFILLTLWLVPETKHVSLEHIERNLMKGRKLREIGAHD
The test is described as follows: tryptophan fluorescence quenching titration. It counts as binding. As to the method: tryptophan fluorescence quenching titration on GalP | GalP activity was assessed by monitoring binding to the small molecule inhibitor forskolin

Molecules are shown by their SMILES.

In test [1], `O=C1NC(=O)[C@H](Cc2ccccc2)N1` [L-benzylhydantoin] yielded a Kd of 17.6 ± 1.8 µM. As to `C=C[C@@]1(C)CC(=O)[C@]2(O)[C@@]3(C)[C@@H](O)CCC(C)(C)[C@@H]3[C@H](O)[C@H](OC(C)=O)[C@@]2(C)O1` [forskolin], in test [2], the Kd came to 63 ± 19 µM.

The values are drawn from publication PMC4636139, “Amphipols Outperform Dodecylmaltoside Micelles in Stabilizing Membrane Protein Structure in the Gas Phase” (Analytical Chemistry, 2014).
